The record followed here is patent US20240294548A1, “TRICYCLIC SULTAMS AND SULFAMIDES AS ANTITUMOR AGENTS” (PELOTON THERAPEUTICS INC., priority 2021, published 2024).

Where two headings read alike, the source gives them in different places.

The test system of test [1] is HCT116 human colorectal carcinoma cells. Nature of the test: CellTiter-Glo assay (cell viability). The test is classed as cell-based. Particulars: HCT-116, 72 h, read-out: CTG IC50. On the procedure: HCT116 human colorectal carcinoma cells were used in these experiments. HCT116 cells were obtained from ATCC. CellTiter-Glo® Luminescent Cell Viability Assay Reagent was obtained from Promega.
About 3,000 cells were seeded into 96-well plate with 100 μL of media (DMEM supplemented with 10% FBS, 100 units penicillin, and […] streptomycin per mL) the day before the experiment. For compound treatment, the master plate was prepared as follows: 100× compound stocks were prepared in a 96-well plate by 1 to 3 serial dilutions of 0.5 mM DMSO stocks. Each master plate contained serial dilution of 8 compounds, including the control compound E7820. […] of 100× compound stock was added to each well of the assay plate to give final concentrations of […]. Each concentration was tested in triplicate. After 3 days, cell viability was determined using CellTiter-Glo Luminescent Cell Viability Assay Reagent following the manufacturer's recommended protocol. Briefly, […] of CellTiter-Glo reagent was added to each well of the assay plate and the contents were mixed for 3 minutes at 600 rpm on a shaker (Thermomixer R). The plate was immediately placed in a plate reader (Synergy 2) and the luminescence signal (0.5 second per well integration time) was determined. IC50 values were calculated using Dotmatics software.
On the technique in general: In ATP-based viability assays light output follows the ATP content of the culture.

Test [2] concerns the target T1, DCAF15 (DDA1-DDB1ΔB-DCAF15Δpro) (Homo sapiens, UniProt Q66K64, DEL276-383).
T1 construct: made in house; host or cells: Sf9 (Bac-to-Bac baculovirus)
As to the kind of experiment: DCAF15 displacement assay (displacement FRET, probe PT7795). The format is binding. To be noted: displacement of PT7795 (300 nM), compound 0.01 to 100 μM, 18 hours incubation; read-out: DCAF15 displacement IC50.

Test [3] deals with T2, DCAF15 RBM39 ternary complex (Homo sapiens, UniProt Q14498+Q66K64, DEL276-383).
T2 construct: Amino acids 150 to 331 of RBM39 were cloned into pGEX4T3; GST (from the pGEX4T3 vector, own knowledge) followed by a TEV cleavage site (N); made in house; host or cells: Sf9 baculovirus (DDB1ΔB/DCAF15); E. coli (RBM39 R1R2)
Nature of the test: DCAF15 RBM39 complex formation assay (FRET). To be noted: FRET ratio, 20 nM DDB1DB/DCAF15, 50 nM RBM39 R1R2, overnight at 4° C.; read-out: DCAF15 RBM39 ternary complex EC50. The format is biochemical. The essentials:
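Mix of 20 nM DDB1DB/DCAF15, 50 nM RBM39 R1R2, 0.2 nM Eu-anti-6×His and 50 nM APC-anti-FLAG (25 mM HEPES pH 7.5, 100 mM NaCl). Compounds, 1 μM down in 3-fold steps over 14 points, kept overnight at 4 °C.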

The mark [4] stands for this setting: HCT116 cells, 3 days, CellTiter-Glo luminescence.

T2 sequence (Q66K64 with tags, fused parts or gaps DEL276-383): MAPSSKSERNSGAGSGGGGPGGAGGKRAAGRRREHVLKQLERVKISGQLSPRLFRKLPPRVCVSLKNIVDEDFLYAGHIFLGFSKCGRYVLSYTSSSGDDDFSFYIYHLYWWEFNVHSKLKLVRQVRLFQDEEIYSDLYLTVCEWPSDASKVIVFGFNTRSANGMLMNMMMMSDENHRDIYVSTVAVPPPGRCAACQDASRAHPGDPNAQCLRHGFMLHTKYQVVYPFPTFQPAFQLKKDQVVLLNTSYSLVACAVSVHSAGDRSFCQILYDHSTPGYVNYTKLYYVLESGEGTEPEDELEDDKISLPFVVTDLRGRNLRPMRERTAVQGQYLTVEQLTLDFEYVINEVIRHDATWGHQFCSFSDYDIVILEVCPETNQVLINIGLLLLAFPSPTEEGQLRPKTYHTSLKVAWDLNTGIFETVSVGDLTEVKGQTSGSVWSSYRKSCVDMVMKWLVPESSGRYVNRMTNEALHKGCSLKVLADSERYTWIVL
T2 sequence (Q14498 150-331, stated change not applied): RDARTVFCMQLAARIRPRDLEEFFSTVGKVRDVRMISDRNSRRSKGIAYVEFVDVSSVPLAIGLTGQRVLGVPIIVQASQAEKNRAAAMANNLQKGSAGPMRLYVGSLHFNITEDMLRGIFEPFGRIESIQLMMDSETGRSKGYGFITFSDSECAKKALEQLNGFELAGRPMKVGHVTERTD

`O=S1(=O)Nc2c(cc(Cl)c3c(Cl)c[nH]c23)CN1CCCC(F)(F)F` [Compound 32, 6,7-dichloro-3-(4,4,4-trifluorobutyl)-1,3,4,9-tetrahydro-[1,2,6] thiadiazino[4,3-g]indole 2,2-dioxide]: the IC50 (commonly the concentration that inhibits the measured activity by half) was found to be 269 nM in test [1] (setting [4]) and 4120 nM in test [2]. Further, the EC50 (in general, the concentration that produces a half-maximal response) in test [3] came to 1.9 nM.

Consider `O=S1(=O)Nc2c(cc(Cl)c3c(Cl)c[nH]c23)CN1Cc1cncnc1` [Compound 33, 6,7-dichloro-3-(pyrimidin-5-ylmethyl)-1,3,4,9-tetrahydro-[1,2,6]thiadiazino[4,3-g] indole 2,2-dioxide], for which the IC50 worked out at 162 nM in test [1] (setting [4]) and 530 nM in test [2]. Besides, in test [3], the EC50 was found to be 2.3 nM.

On to `O=S1(=O)Nc2c(cc(Cl)c3c(Cl)c[nH]c23)CN1CC1COC1` [Compound 34, 6,7-dichloro-3-(oxetan-3-ylmethyl)-1,3,4,9-tetrahydro-[1,2,6]thiadiazino[4,3-g]indole 2,2-dioxide], for which the IC50 in test [1] stood at 126 nM; in test [2] it was 689 nM. In test [3], the EC50 came to 1.8 nM.

On to `O=S1(=O)Nc2c(cc(Cl)c3c(Cl)c[nH]c23)CN1Cc1ccncc1Cl` [Compound 35, 6,7-dichloro-3-((3-chloropyridin-4-yl)methyl)-1,3,4,9-tetrahydro-[1,2,6]thiadiazino [4,3-g]indole 2,2-dioxide], for which the IC50 was determined as 118 nM in test [1] (setting [4]) and 210 nM in test [2]. The EC50 in test [3] worked out at 4 nM.

As to `Cc1nnc(CN2Cc3cc(Cl)c4c(Cl)c[nH]c4c3NS2(=O)=O)o1` [Compound 36, 6,7-dichloro-3-((5-methyl-1,3,4-oxadiazol-2-yl)methyl)-1,3,4,9-tetrahydro-[1,2,6] thiadiazino[4,3-g]indole 2,2-dioxide], the IC50 in test [1] (setting [4]) is 236 nM; in test [2] it was 963 nM. Moreover, the EC50 in test [3] was 2.1 nM.

Turning to `Cn1cnc(CN2Cc3cc(Cl)c4c(Cl)c[nH]c4c3NS2(=O)=O)n1` [Compound 37, 6,7-dichloro-3-((1-methyl-1H-1,2,4-triazol-3-yl)methyl)-1,3,4,9-tetrahydro-[1,2,6] thiadiazino[4,3-g]indole 2,2-dioxide], the results for the IC50 in test [1] (setting [4]) and in test [2] were 568 nM and 2000 nM, respectively. Besides, in test [3], the EC50 is 2.5 nM.

Consider `Cn1ncnc1CN1Cc2cc(Cl)c3c(Cl)c[nH]c3c2NS1(=O)=O` [Compound 38, 6,7-dichloro-3-((1-methyl-1H-1,2,4-triazol-5-yl)methyl)-1,3,4,9-tetrahydro-[1,2,6] thiadiazino[4,3-g]indole 2,2-dioxide], for which the IC50 was 262 nM in test [1] (setting [4]) and 458 nM in test [2]. Also, the EC50 in test [3] came out at 1.3 nM.

`O=S1(=O)Nc2c(cc(Cl)c3c(Cl)c[nH]c23)CN1CC1CCNCC1` [Compound 39, 6,7-dichloro-3-(piperidin-4-ylmethyl)-1,3,4,9-tetrahydro-[1,2,6]thiadiazino[4,3-g]indole 2,2-dioxide]: the IC50 worked out at 4990 nM in test [1] (setting [4]) and 285 nM in test [2]. Moreover, the EC50 in test [3] was 1.2 nM.

Regarding `CC(=O)NCCN1Cc2cc(Cl)c3c(Cl)c[nH]c3c2NS1(=O)=O` [Compound 40, N-(2-(6,7-dichloro-2,2-dioxido-4,9-dihydro-[1,2,6]thiadiazino[4,3-g]indol-3(1H)-yl)ethyl) acetamide], the figures for the IC50 in test [1] (setting [4]) and in test [2] were 537 nM and 1560 nM, respectively. Besides, in test [3], the EC50 was 1.6 nM.

On to `CN(C)CCN1Cc2cc(Cl)c3c(Cl)c[nH]c3c2NS1(=O)=O` [Compound 41, 6,7-dichloro-3-(2-(dimethylamino)ethyl)-1,3,4,9-tetrahydro-[1,2,6] thiadiazino[4,3-g]indole 2,2-dioxide], for which the IC50 in test [1] (setting [4]) was determined as 183 nM; in test [2] it was 17500 nM. For the same compound, the EC50 in test [3] was 10.6 nM.

As to `O=S1(=O)Nc2c(cc(Cl)c3c(Cl)c[nH]c23)CN1Cc1cccnn1` [Compound 42, 6,7-dichloro-3-(pyridazin-3-ylmethyl)-1,3,4,9-tetrahydro-[1,2,6]thiadiazino[4,3-g]indole 2,2-dioxide], the IC50 in test [1] (setting [4]) turned out to be 298 nM; in test [2], 588 nM. Besides, the EC50 in test [3] was 0.7 nM.

Consider `Cn1cc(CN2Cc3cc(Cl)c4c(Cl)c[nH]c4c3NS2(=O)=O)cn1` [Compound 43, 6,7-dichloro-3-((1-methyl-1H-pyrazol-4-yl)methyl)-1,3,4,9-tetrahydro-[1,2,6] thiadiazino[4,3-g]indole 2,2-dioxide], for which the IC50 in test [1] (setting [4]) came to 246 nM; in test [2], 1050 nM. Besides, the EC50 in test [3] is 2.7 nM.

In the case of `O=S1(=O)Nc2c(cc(Cl)c3c(Cl)c[nH]c23)CN1CC1CCOCC1` [Compound 44, 6,7-dichloro-3-((tetrahydro-2H-pyran-4-yl)methyl)-1,3,4,9-tetrahydro-[1,2,6] thiadiazino[4,3-g]indole 2,2-dioxide], the IC50 in test [1] (setting [4]) is 62.2 nM; in test [2] it was 276 nM. For the same compound, the EC50 in test [3] was 1.8 nM.

Regarding `CC(=O)N1CCC(CN2Cc3cc(Cl)c4c(Cl)c[nH]c4c3NS2(=O)=O)CC1` [Compound 45, 1-(4-((6,7-dichloro-2,2-dioxido-4,9-dihydro-[1,2,6]thiadiazino[4,3-g]indol-3(1H)-yl)methyl)piperidin-1-yl)ethan-1-one], the IC50 was 52.8 nM in test [1] (setting [4]) and 127 nM in test [2]. Moreover, in test [3], the EC50 was 1.6 nM.

For `N#Cc1ccccc1CN1Cc2cc(Cl)c3c(Cl)c[nH]c3c2NS1(=O)=O` [Compound 46, 2-((6,7-dichloro-2,2-dioxido-4,9-dihydro-[1,2,6]thiadiazino[4,3-g]indol-3(1H)-yl)methyl) benzonitrile], the IC50 came out at 278 nM in test [1] (setting [4]) and 294 nM in test [2]. The EC50 in test [3] was 1.6 nM.

As to `CC(=O)N1CC(CN2Cc3cc(Cl)c4c(Cl)c[nH]c4c3NS2(=O)=O)C1` [Compound 47, 1-(3-((6,7-dichloro-2,2-dioxido-4,9-dihydro-[1,2,6]thiadiazino[4,3-g]indol-3(1H)-yl)methyl)azetidin-1-yl) ethan-1-one], the IC50 was 393 nM in test [1] (setting [4]) and 390 nM in test [2]. Besides, the EC50 in test [3] was 0.4 nM.

Consider `Cc1ccc(CN2Cc3cc(Cl)c4c(Cl)c[nH]c4c3NS2(=O)=O)cn1` [Compound 48, 6,7-dichloro-3-((6-methylpyridin-3-yl)methyl)-1,3,4,9-tetrahydro-[1,2,6] thiadiazino[4,3-g]indole 2,2-dioxide], for which the IC50 in test [1] (setting [4]) was determined as 259 nM; in test [2] it was 623 nM. In addition, the EC50 in test [3] is 0.6 nM.

For the compound `O=S1(=O)Nc2c(cc(Cl)c3c(Cl)c[nH]c23)CN1Cc1ccc(C(F)(F)F)nc1` [Compound 49, 6,7-dichloro-3-((6-(trifluoromethyl)pyridin-3-yl)methyl)-1,3,4,9-tetrahydro-[1,2,6] thiadiazino[4,3-g]indole 2,2-dioxide], the IC50 in test [1] (setting [4]) came to 2250 nM; in test [2], 8390 nM. In addition, the EC50 in test [3] was determined as 0.7 nM.

As to `N#Cc1ccc(CN2Cc3cc(Cl)c4c(Cl)c[nH]c4c3NS2(=O)=O)cc1` [Compound 50, 4-((6,7-dichloro-2,2-dioxido-4,9-dihydro-[1,2,6]thiadiazino[4,3-g]indol-3(1H)-yl)methyl) benzonitrile], the figures for the IC50 in test [1] (setting [4]) and in test [2] were 881 nM and 5710 nM, respectively. Besides, in test [3], the EC50 came to 1.1 nM.

For the compound `N#Cc1cccc(CN2Cc3cc(Cl)c4c(Cl)c[nH]c4c3NS2(=O)=O)c1` [Compound 51, 3-((6,7-dichloro-2,2-dioxido-4,9-dihydro-[1,2,6]thiadiazino[4,3-g]indol-3(1H)-yl)methyl) benzonitrile], the IC50 came to 283 nM in test [1] (setting [4]) and 4410 nM in test [2]. For the same compound, the EC50 in test [3] turned out to be 1.5 nM.

As for `O=S1(=O)Nc2c(cc(Cl)c3c(Cl)c[nH]c23)CN1Cc1ccncn1` [Compound 52, 6,7-dichloro-3-(pyrimidin-4-ylmethyl)-1,3,4,9-tetrahydro-[1,2,6] thiadiazino[4,3-g]indole 2,2-dioxide], the IC50 in test [1] (setting [4]) stood at 93.7 nM; in test [2], 580 nM. Moreover, the EC50 in test [3] came to 0.6 nM.

`O=S1(=O)Nc2c(cc(Cl)c3c(Cl)c[nH]c23)CN1Cc1ccc(C(F)F)nc1` [Compound 53, 6,7-dichloro-3-((6-(difluoromethyl)pyridin-3-yl)methyl)-1,3,4,9-tetrahydro-[1,2,6]thiadiazino [4,3-g]indole 2,2-dioxide]: the IC50 in test [1] (setting [4]) was 394 nM; in test [2], 4280 nM. In addition, the EC50 in test [3] worked out at 3.4 nM.
